Earlier results as cited in patent US20240299501A1, “COMPOSITION AND METHODS OF TREATMENT USING TRANSDERMAL HORMONE SUPPLEMENTATION” (Xygenyx Inc., priority 2023, published 2024).

What was measured:
[1] = single penetration enhancer
[2] = tested on: wide dynamic range neurons in the ventroposterolateral nucleus of the thalamus; conditions: stated as 'is believed'
[3] = in the human body

Compound	increase of drug uptake via the transdermal route (factor) [1]	also measured
CC(C)[C@@H]1CC[C@@H](C)C[C@H]1O [Menthol]	≥ 10	
CCCCCc1cc(O)c2c(c1)OC(C)(C)C1CCC(C)=CC21 (stereo not shown) [THC, Δ-9-tetrahydrocannabinol]		potency relative to morphine in mediating pain [2]: ten times more powerful than morphine
HGH: hormone comprising a peptide chain that is synthesized in the pituitary gland		biological half-life [3]: 10-20 minutes
CC12CCC(CC1)C(C)(C)O2 [eucalyptol, 1,8-epoxy-p-menthane]	more than 10	
